Measurements from PubChem BioAssay AID248 (DTP/NCI, 2004).
“And” between values parts separate entries of the source, which are not always exact repeats. Equal values may be shown once. Inconclusive results and toxic doses are left out. Rule as the data show it: active = T/C of 150% or more; inactive = T/C below 125%.

Tested on: L1210 leukemia ip in BDF1 mice, survival T/C
Assay: NCI In Vivo Anticancer Drug Screen. Data for tumor model L1210 Leukemia (intraperitoneal) in B6D2F1 (BDF1) mice
Conditions: endpoint: mean survival time, higher = longer survival
Procedure, shortened: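 Each compound was tested against a transplantable tumor grown in mice. The endpoint was survival, with treated animals benchmarked against vehicle controls as a simple ratio.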

[1] = dose: 100.0 mg/kg/injection, schedule: Q01DX009 (ip), vehicle: Klucel (hydroxypropylcellulose) (HPC)
[2] = dose: 100.0 mg/kg/injection, schedule: Q04DX003 (ip), vehicle: Klucel (hydroxypropylcellulose) (HPC)
[3] = dose: 100.0 mg/kg/injection, schedule: Q01DX009 (ip), vehicle: saline with Tween-80
[4] = dose: 100.0 mg/kg/injection, schedule: Q04DX003 (ip), vehicle: saline with Tween-80
[5] = dose: 200.0 mg/kg/injection, schedule: Q01DX009 (ip), vehicle: saline with Tween-80
[6] = dose: 200.0 mg/kg/injection, schedule: Q04DX003 (ip), vehicle: saline with Tween-80
[7] = dose: 400.0 mg/kg/injection, schedule: Q01DX009 (ip), vehicle: saline with Tween-80
[8] = dose: 400.0 mg/kg/injection, schedule: Q04DX003 (ip), vehicle: saline with Tween-80
[9] = dose: 100.0 mg/kg/injection, schedule: Q04DX003 (ip), vehicle: water
[10] = dose: 200.0 mg/kg/injection, schedule: Q04DX003 (ip), vehicle: water

Measured: T/C

O=C(NC1CCCCC1)Sc1ccc(Cl)cc1
inactive: dose: 25.0 mg/kg/injection, schedule: Q01DX009 (ip), vehicle: Klucel (hydroxypropylcellulose) (HPC) 104 % of control | dose: 25.0 mg/kg/injection, schedule: Q04DX003 (ip), vehicle: Klucel (hydroxypropylcellulose) (HPC) 94 % of control | dose: 50.0 mg/kg/injection, schedule: Q01DX009 (ip), vehicle: Klucel (hydroxypropylcellulose) (HPC) 103 % of control | dose: 50.0 mg/kg/injection, schedule: Q04DX003 (ip), vehicle: Klucel (hydroxypropylcellulose) (HPC) 102 % of control | [1] 98 % of control | [2] 100 % of control and 108 % of control

COc1ccc(/C=C/C(=O)c2ccccc2)cc1
inactive: [3] 93 % of control and 101 % of control | [4] 93 % of control | [5] 95 % of control and 96 % of control | [6] 96 % of control | [7] 111 % of control and 91 % of control | [8] 104 % of control

CCCCCCCCCCCCCCCCCSc1ccc2ccccc2c1
inactive: [1] 97 % of control | dose: 200.0 mg/kg/injection, schedule: Q01DX009 (ip), vehicle: Klucel (hydroxypropylcellulose) (HPC) 100 % of control | dose: 400.0 mg/kg/injection, schedule: Q01DX009 (ip), vehicle: Klucel (hydroxypropylcellulose) (HPC) 95 % of control

Cc1nc(N)nc2c1CCC(Nc1ccccc1)S2 (configuration not stated)
inactive: [2] 106 % of control | dose: 200.0 mg/kg/injection, schedule: Q04DX003 (ip), vehicle: Klucel (hydroxypropylcellulose) (HPC) 103 % of control | dose: 400.0 mg/kg/injection, schedule: Q04DX003 (ip), vehicle: Klucel (hydroxypropylcellulose) (HPC) 92 % of control

COc1ccc(/C=N/N=c2\[nH][nH]/c(=N\N=C\c3ccc(OC)c4ccccc34)c3ccccc23)c2ccccc12
inactive: dose: 50.0 mg/kg/injection, schedule: Q01DX001 (ip), vehicle: saline 100 % of control | dose: 100.0 mg/kg/injection, schedule: Q01DX001 (ip), vehicle: saline 100 % of control | dose: 200.0 mg/kg/injection, schedule: Q01DX001 (ip), vehicle: saline 103 % of control | dose: 400.0 mg/kg/injection, schedule: Q01DX001 (ip), vehicle: saline 105 % of control

CCSC(=O)Nc1cccc(OC(=O)NC)c1
inactive: dose: 100.0 mg/kg/injection, schedule: Q01DX001 (ip), vehicle: saline with Tween-80 100 % of control | dose: 200.0 mg/kg/injection, schedule: Q01DX001 (ip), vehicle: saline with Tween-80 97 % of control | dose: 400.0 mg/kg/injection, schedule: Q01DX001 (ip), vehicle: saline with Tween-80 97 % of control

Cc1cnc(C#N)c(-n2ccnc2)n1
inactive: dose: 50.0 mg/kg/injection, schedule: Q01DX009 (ip), vehicle: water 107 % of control | dose: 100.0 mg/kg/injection, schedule: Q01DX009 (ip), vehicle: water 94 % of control | [9] 108 % of control | dose: 200.0 mg/kg/injection, schedule: Q01DX009 (ip), vehicle: water 92 % of control | [10] 98 % of control

c1ccc(-c2cc3ccncc3c3ccccc23)cc1
inactive: [9] 102 % of control | [10] 96 % of control | dose: 400.0 mg/kg/injection, schedule: Q04DX003 (ip), vehicle: water 96 % of control

C/C(=C\c1cc(-c2ccccc2)cc(=O)o1)c1ccccc1
inactive: [3] 89 % of control | [4] 104 % of control | [5] 97 % of control | [6] 95 % of control | [7] 89 % of control | [8] 103 % of control

COC[CH2][Hg][O]C(C)=O
inactive: dose: 3.12 mg/kg/injection, schedule: Q04DX002 (ip), vehicle: Klucel (hydroxypropylcellulose) (HPC) 98 % of control | dose: 6.25 mg/kg/injection, schedule: Q04DX002 (ip), vehicle: Klucel (hydroxypropylcellulose) (HPC) 92 % of control | dose: 12.5 mg/kg/injection, schedule: Q04DX002 (ip), vehicle: Klucel (hydroxypropylcellulose) (HPC) 88 % of control and 90 % of control
